By IC50 is commonly meant the concentration that gives 50% inhibition. A high value points to weaker potency. One may read the MRT as the average time that molecules of a dose stay in the body.

The text below walks through data of patent publication US12466840B2, “Small molecule inhibitors of KRAS proteins” (Merck Sharp & Dohme LLC, priority 2023, dated 2025).

For one data set, the target named is KRAS G12R (Homo sapiens (Human), UniProt P01116, G12R). The data set is described as follows: SOS-catalyzed nucleotide exchange assay (GNE), KRAS G12R. The class given is biochemical. As to conditions: TR-FRET, 60 min preincubation. An excerpt:
(§1) Procedure for SOS-Catalyzed Nucleotide Exchange Assay for KRAS-WT, G12C/D/V/A/R/S, G13D, Q61H, HRAS-WT, and NRAS-WT
(§2) Recombinant KRAS-G12C protein used in this assay has an additional triple mutation (C51S/C80L/C118S). Whereas KRAS-WT, G12D/V/A/S/R, G13D, Q61H, HRAS and NRAS are in context of their WT protein sequence background. Specifically, the SOS-catalyzed nucleotide exchange assay utilizes a preformed TR-FRET complex containing a specific biotinylated RAS protein (KRAS-WT, G12C/V/D/A/S/R, G13D, Q61H, HRAS-WT, NRAS-WT; described above) with Bodipy-GDP, and Terbium-streptavidin. Compounds are preincubated with this complex for 60 minutes. Subsequently, recombinant human SOS protein and unlabeled GTP are added to initiate the exchange reaction. Small molecule inhibitors stabilize the Bodipy-GDP complex whereas the untreated protein rapidly exchanges Bodipy-GDP for unlabeled GTP resulting in reduced TR-FRET signal.
(§3) To assemble the preformed TR-FRET complexes, each biotinylated RAS protein is diluted to 2 μM in an EDTA Buffer (20 mM HEPES pH 7.5, 50 mM sodium chloride, 10 mM EDTA, and 0.01% Tween) and incubated at room temperature for one hour. This mixture is then further diluted to 90 nM in an Assay Buffer (20 mM HEPES pH 7.5, 150 mM sodium chloride, 10 mM magnesium chloride, and 0.005% Tween) containing 15 nM of Terbium-Streptavidin (Invitrogen, catalog #PV3577) and 900 nM of Bodipy-GDP (Invitrogen, catalog #G22360) and incubated at room temperature for six hours. It should be noted that this preformed TR-FRET complex for each of the RAS protein were made ahead of time, aliquoted and stored at −80° C. until the day of the experiment.
(§4) Each test compound (10 mM stock in DMSO) is diluted in DMSO to make a final-10-point, 3-fold dilution and is acoustically dispensed into a 384-well assay plate (Corning, catalog #3820) using an Echo 550 (Labcyte). Each well of the assay plate receives 3 μL of a specific 3×RAS preformed TR-FRET complex and 3 μL of Assay Buffer and is incubated at room temperature for 60 minutes (preincubation time). Each well then receives 3 μL of 3× recombinant human SOS protein and GTP (Sigma, G8877) in Assay Buffer and is incubated at room temperature for 30 minutes (G13D), 60 minutes (KRAS WT/G12C/D, H/NRAS) or 90 minutes for G12A/R/S/V and Q61H. The final reaction in each well of 9 μL consists of 3 mM GTP, specific Ras and SOS proteins in the following concentrations: KRAS-G12C/SOS=3 nM/40 nM, KRAS-WT and G12D/SOS=1 nM/40 nM, KRAS-G12V/SOS=1.25 nM/160 nM, KRAS-G12A/S/SOS=1 nM/160 nM, KRAS-G12R/SOS=1 nM/320 nM, KRAS-Q61H/SOS=1 nM/320 nM, KRAS-G13D/SOS=1.25 nM/[…], HRAS-WT and NRAS-WT=1.25 nM/40 nM.
(§5) The time-resolved fluorescence resonance energy transfer (TR-FRET) signal is measured on an Envision (PerkinElmer) plate reader: Excitation filter=340 nm; emission1=495 nm; emission2=520 nm; dichroic mirror=D400/D505; delay time=[…]. The signal of each well is determined as the ratio of the emission at 520 nm to that at 495 nm. Percent effect of each well is determined after normalization to control wells containing DMSO (no effect) or a saturating concentration of inhibitor (max effect). The apparent effect as a function of compound concentration is fit to a four-parameter logistic equation.
(In general: TR-FRET usually uses a lanthanide donor and a delayed reading to cut background.)

The target in a further data set is KRAS G12C (Homo sapiens (Human), UniProt P01116, C118S/C51S/C80L/G12C). The data set can be described thus: SOS-catalyzed nucleotide exchange assay (GNE), KRAS G12C. The class given is biochemical. Particulars: TR-FRET, 60 min preincubation; protein with C51S/C80L/C118S.
Text: as §1, §2, §3, §4, §5

In another data set the target is HRAS (Homo sapiens (Human), UniProt P01112). The data set can be described thus: SOS-catalyzed nucleotide exchange assay (GNE), HRAS-WT. The class given is biochemical. Particulars: TR-FRET, 60 min preincubation.
Text: as §1, §2, §3, §4, §5

Another data set concerns the target KRAS Q61H (Homo sapiens (Human), UniProt P01116, Q61H). The data set is described as follows: SOS-catalyzed nucleotide exchange assay (GNE), KRAS Q61H. The class given is biochemical. Particulars: TR-FRET, 60 min preincubation.
Text: as §1, §2, §3, §4, §5

The target of a further data set is KRAS G12D (Homo sapiens (Human), UniProt P01116, G12D). The data set can be described thus: SOS-catalyzed nucleotide exchange assay (GNE), KRAS G12D. In kind it is biochemical. Particulars: TR-FRET, 60 min preincubation.
Text: as §1, §2, §3, §4, §5

Data set [1] in a line: Rat IV/PO pharmacokinetic studies. The class given is in vivo. As for the experimental part:
Procedure for Rat IV/PO Pharmacokinetic Studies
Plasma pharmacokinetic parameters for clearance, volume of distribution, half-life and oral bioavailability were determined in rats from oral administration and IV administration studies. 4 male rats, typically weighing 225-260 g, were fasted overnight prior to dosing. IV formulation was administered to 2 rats via pre-cannulated jugular vein, and oral dosing was administered to 2 rats via oral gavage. Blood was collected by pre-cannulated artery, typically at predose, 2, 8, 15, 30 min, 1, 2, 4, 6, and 8 hr postdose for IV, and at predose, 15, 30 min, 1, 2, 4, 6, 8 h for oral dosing. Samples were collected in K2EDTA tubes, stored on ice, and centrifuged. Plasma was transferred to a micro titer plate and stored at −70° C. until analysis. Plasma samples were extracted using protein precipitation and analyzed by liquid chromatography separation followed by mass spec detection (LC-MS/MS), using a standard curve for each compound. Plasma pharmacokinetic parameters were calculated for IV and oral dosing data by non-compartmental methods. Oral bioavailability was determined as the ratio of the dose-normalized plasma area under the curve (AUC) following oral dosing vs. IV dosing.

The next data set concerns the target KRAS G12A (Homo sapiens (Human), UniProt P01116, G12A). The data set can be described thus: SOS-catalyzed nucleotide exchange assay (GNE), KRAS G12A. The class given is biochemical. As to conditions: TR-FRET, 60 min preincubation.
Text: as §1, §2, §3, §4, §5

Another data set concerns the target KRAS G13D (Homo sapiens (Human), UniProt P01116, G13D). The data set is described as follows: SOS-catalyzed nucleotide exchange assay (GNE), KRAS G13D. The class given is biochemical. Particulars: TR-FRET, 60 min preincubation.
Text: as §1, §2, §3, §4, §5

In another data set the target is KRAS WT (Homo sapiens (Human), UniProt P01116). The data set is described as follows: SOS-catalyzed nucleotide exchange assay (GNE), KRAS WT. As to conditions: TR-FRET, 60 min preincubation. The class given is biochemical.
Text: as §1, §2, §3, §4, §5

Chain of KRAS G12D (P01116 other isoform, or with tags, fused parts or gaps G12D (already in the parent)): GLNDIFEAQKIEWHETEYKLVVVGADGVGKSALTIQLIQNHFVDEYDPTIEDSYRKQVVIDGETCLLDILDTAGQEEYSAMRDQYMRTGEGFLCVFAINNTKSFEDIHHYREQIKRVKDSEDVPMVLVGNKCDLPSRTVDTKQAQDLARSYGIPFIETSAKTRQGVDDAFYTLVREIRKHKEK
Chain of KRAS G12A (P01116 other isoform, or with tags, fused parts or gaps G12A (already in the parent)): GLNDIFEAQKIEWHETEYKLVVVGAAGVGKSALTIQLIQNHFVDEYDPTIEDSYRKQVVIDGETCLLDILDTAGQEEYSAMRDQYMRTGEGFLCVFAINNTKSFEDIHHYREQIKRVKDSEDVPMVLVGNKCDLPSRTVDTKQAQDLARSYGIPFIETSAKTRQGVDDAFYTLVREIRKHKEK
Chain of HRAS (P01112 other isoform, or with tags, fused parts or gaps): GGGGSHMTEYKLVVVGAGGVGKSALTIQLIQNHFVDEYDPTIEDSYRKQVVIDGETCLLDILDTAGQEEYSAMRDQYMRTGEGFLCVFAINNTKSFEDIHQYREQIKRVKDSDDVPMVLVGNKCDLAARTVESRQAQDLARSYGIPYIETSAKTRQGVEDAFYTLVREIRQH
Chain of KRAS G13D (P01116 other isoform, or with tags, fused parts or gaps G13D (already in the parent)): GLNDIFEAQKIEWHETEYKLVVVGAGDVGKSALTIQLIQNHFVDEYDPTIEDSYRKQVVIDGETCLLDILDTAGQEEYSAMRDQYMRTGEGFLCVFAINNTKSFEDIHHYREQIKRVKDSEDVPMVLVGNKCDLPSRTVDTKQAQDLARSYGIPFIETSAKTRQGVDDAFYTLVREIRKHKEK
Chain of KRAS G12C (P01116 other isoform, or with tags, fused parts or gaps, stated change not applied): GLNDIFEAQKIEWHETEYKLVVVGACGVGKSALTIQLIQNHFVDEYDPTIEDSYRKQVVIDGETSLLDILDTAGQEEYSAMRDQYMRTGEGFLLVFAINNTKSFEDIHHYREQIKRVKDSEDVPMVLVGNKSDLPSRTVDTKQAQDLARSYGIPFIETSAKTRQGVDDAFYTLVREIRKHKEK
Chain of KRAS Q61H (P01116 other isoform, or with tags, fused parts or gaps Q61H (already in the parent)): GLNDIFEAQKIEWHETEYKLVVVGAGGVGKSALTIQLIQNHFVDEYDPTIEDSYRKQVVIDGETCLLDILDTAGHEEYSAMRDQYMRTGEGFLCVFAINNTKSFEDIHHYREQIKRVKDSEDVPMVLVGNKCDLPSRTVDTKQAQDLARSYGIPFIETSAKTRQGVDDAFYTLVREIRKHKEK
Chain of KRAS G12R (P01116 other isoform, or with tags, fused parts or gaps G12R (already in the parent)): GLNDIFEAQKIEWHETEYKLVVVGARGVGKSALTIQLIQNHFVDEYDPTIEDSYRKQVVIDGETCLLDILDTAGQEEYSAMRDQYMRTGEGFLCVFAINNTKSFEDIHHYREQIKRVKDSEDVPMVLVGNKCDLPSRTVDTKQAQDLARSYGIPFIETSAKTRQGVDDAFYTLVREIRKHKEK
Chain of KRAS WT (P01116 other isoform, or with tags, fused parts or gaps): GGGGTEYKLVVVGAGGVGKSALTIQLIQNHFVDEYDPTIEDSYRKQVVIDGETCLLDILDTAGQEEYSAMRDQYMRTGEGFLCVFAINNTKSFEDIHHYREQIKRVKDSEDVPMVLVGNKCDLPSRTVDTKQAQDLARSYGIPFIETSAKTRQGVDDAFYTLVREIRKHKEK

Turning to `CCc1c(F)ccc2cc3[nH]nc(C)c3c(-c3nc4c5c(nc(OC[C@@]67CCCN6C/C(=C\F)C7)nc5c3F)N3CCCOC[C@H]3CO4)c12` [Ex-7, (8aS)-5-(5-ethyl-6-fluoro-3-methyl-1H-benzo[f]indazol-4-yl)-4-fluoro-2-(((S,Z)-2-(fluoromethylene)tetrahydro-1H-pyrrolizin-7a(5H)-yl)methoxy)-8a,9,12,13-tetrahydro-8H,11H-7,10-dioxa-1,3,6,13a-tetraazanaphtho[1,8-ab]heptalene], the IC50 against KRAS G12R is 1.3 nM; against KRAS G12C it was 11 nM; against HRAS, 2180 nM; against KRAS Q61H it was 2.8 nM; on KRAS G12D, 1.4 nM; at KRAS G12A, 1.3 nM. The 50% inhibitory concentration (IC50) on KRAS G13D was found to be 2.4 nM; against KRAS WT, 1.4 nM. Further, the F % in data set [1] (oral bioavailability, PO 2 mg/kg vs. IV 1 mg/kg) was found to be 15%. In [1] (plasma, IV 1 mg/kg), this compound had a CLp of 35 mL/min/kg. Moreover, the MRT in [1] (plasma, IV 1 mg/kg) was determined as 1.9 h. Also, the Vd in data set [1] (plasma, IV 1 mg/kg) was 4.0 L/kg.
